Measurements published in ChEMBL document CHEMBL1157449, “Development of a novel fluorescent probe for fluorescence correlation spectroscopic detection of kinase inhibitors” (Bioorg Med Chem Lett, 2008).

Columns and labels:
[1] = biological target: T1, Mitogen-activated protein kinase kinase kinase 5 (Homo sapiens, UniProt Q99683); test: Inhibition of ASK1 by luciferase assay
T1 sequence (Q99683 whole entry): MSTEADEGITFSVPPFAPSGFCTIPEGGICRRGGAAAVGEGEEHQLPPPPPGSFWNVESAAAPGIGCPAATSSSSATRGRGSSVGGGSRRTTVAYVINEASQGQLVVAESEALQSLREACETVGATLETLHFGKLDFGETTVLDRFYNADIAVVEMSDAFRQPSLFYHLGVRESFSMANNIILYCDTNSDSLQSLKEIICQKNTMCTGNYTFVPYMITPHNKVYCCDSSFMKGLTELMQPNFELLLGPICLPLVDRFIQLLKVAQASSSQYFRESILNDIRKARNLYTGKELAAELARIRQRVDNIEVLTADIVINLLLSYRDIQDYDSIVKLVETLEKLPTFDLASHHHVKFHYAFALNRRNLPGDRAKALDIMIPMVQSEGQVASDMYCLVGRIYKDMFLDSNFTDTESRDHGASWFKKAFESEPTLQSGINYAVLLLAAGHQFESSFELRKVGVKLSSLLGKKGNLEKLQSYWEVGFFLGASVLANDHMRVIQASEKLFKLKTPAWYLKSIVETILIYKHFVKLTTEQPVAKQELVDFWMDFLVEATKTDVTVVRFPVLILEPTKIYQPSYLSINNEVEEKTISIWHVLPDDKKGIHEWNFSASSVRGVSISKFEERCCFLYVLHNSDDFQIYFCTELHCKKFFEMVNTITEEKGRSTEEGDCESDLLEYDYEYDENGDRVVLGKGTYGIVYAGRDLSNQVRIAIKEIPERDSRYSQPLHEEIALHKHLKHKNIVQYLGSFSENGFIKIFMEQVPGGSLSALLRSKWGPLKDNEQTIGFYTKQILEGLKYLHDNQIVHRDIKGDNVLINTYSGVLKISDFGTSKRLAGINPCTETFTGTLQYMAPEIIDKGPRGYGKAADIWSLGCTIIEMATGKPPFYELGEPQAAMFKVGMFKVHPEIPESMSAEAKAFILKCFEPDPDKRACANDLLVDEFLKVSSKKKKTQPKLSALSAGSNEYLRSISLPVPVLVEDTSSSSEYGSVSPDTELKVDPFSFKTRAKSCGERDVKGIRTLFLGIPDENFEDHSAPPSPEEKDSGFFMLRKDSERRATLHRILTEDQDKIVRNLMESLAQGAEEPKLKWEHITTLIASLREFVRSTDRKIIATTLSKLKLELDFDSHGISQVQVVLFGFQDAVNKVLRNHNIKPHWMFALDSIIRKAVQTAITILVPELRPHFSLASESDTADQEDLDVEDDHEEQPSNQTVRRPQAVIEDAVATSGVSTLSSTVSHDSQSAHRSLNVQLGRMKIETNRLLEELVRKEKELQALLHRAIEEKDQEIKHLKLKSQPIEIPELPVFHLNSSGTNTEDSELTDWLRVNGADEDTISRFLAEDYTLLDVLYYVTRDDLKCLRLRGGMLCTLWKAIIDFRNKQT

[2] = biological target: T1, Mitogen-activated protein kinase kinase kinase 5; test: Inhibition of ASK1 by fluorescence correlation spectroscopy
[3] = biological target: T1, Mitogen-activated protein kinase kinase kinase 5; test: Binding affinity to ASK1

Row | Structure (SMILES) | IC50 [1] [µM] | IC50 [2] [µM] | Kd [3] [µM]
1 | Cn1cc(/C=C2\C(=O)Nc3ccccc32)c2ccccc21 | 82.7 | > 100 | 
2 | CO[C@@H]1[C@H](N(C)C(=O)COCCOCCNC(=O)c2ccc(-c3c4ccc(=[N+](C)C)cc-4oc4cc(N(C)C)ccc34)c(C(=O)O)c2)C[C@H]2O[C@]1(C)n1c3ccccc3c3c4c(c5c6ccccc6n2c5c31)C(=O)NC4 |  |  | 8
3 | NC1=NC(=O)/C(=C2\CCNC(=O)c3[nH]c(Br)cc32)N1 [HYMENIALDISINE] | 0.15 | 7 | 
